Experimental findings from US5972894A, “Peptides having potassium channel opener activity” (Cytran, Inc., priority 1997, dated 1999) are described below.

One data set concerns Intestinal Smooth Muscle. The data set can be described thus: Calcium-induced contraction of intestinal smooth muscle specimens. In kind it is cell-based, guinea pigs. Particulars: 20 mM CaCl2. As to the method: GE and VT served as test substances in this experiment. GE was tested at concentrations of 10^-6 g/ml and 10^-5 g/ml (4.9×10^-6 M and 4.9×10^-5 M, respectively), and VT was tested at concentrations 10^-6 g/ml and 10^-5 g/ml (4.58×10^-6 and 4.58×10^-5 M, respectively).
Small intestinal SMS samples from ten guinea pigs were surgically isolated and prepared as follows. First, the SMS samples were preincubated for 40 minutes in an organ bath holding a standard Krebs-Henseleit physiological salt solution containing calcium chloride (CaCl2) at concentration of 2.5 mM. Next, each SMS was washed with a calcium-free solution of Krebs-Henseleit and incubated in a calcium-free Krebs-Henseleit solution for 40 minutes. Contractile activity was pre-induced in each SMS by first perfusing the organ bath containing the sample for 15 minutes with a Krebs-Henseleit solution containing 30 mM KCl and then perfusing the bath for an additional 15 minutes with a Krebs-Henseleit solution containing 20 mM CaCl2. Finally, each SMS sample was washed with a calcium-free Krebs-Henseleit solution for 40 minutes. In these experiments, measurements of the contractile response of the SMS following the addition of a Krebs-Henseleit solution containing 20 mM calcium served as the control (baseline). Changes in contraction amplitudes were recorded by using the method set forth in Step 1 of Example 2, above.
After washing the SMS as outlined in Step 1, the organ bath with the SMS sample was perfused for 15 minutes with the solution of a test or reference substance. In this instance, GE and VT served as the test substances, and each dipeptide was tested at a concentration of 10^-6 g/ml.
Following perfusion with the test or reference substance, the SMS sample/organ bath was perfused for 10 minutes with a Krebs-Henseleit solution containing 30 mM KCl and then perfused for an additional 10 minutes with a Krebs-Henseleit solution containing 20 mM CaCl2. Next, each SMS sample was washed with a calcium-free Krebs-Henseleit solution for 40 minutes. The effect of the test or reference substance on the SMS sample was evaluated by measuring the contractile response (i.e., the change in contraction amplitude) of the sample following the addition of the Krebs-Henseleit solution containing 20 mM CaCl2.
Next, the organ bath was perfused for 10 minutes with a Krebs-Henseleit solution containing 30 mM KCl and then for additional 10 minutes with a Krebs-Henseleit solution containing 20 mM CaCl2. The effect of the respective test or reference substance was evaluated a second time by measuring the change in the contraction amplitude of the SMS following the addition of the Krebs-Henseleit solution containing 20 mM CaCl2. […]

The test system of a further data set is mice. The data set can be described thus: Chloroform-induced arrhythmia. In kind it is in vivo. To be noted: 240 mg/kg i.p. 15 min before chloroform.
In a further data set the test system is ischemic myocardium. The data set can be described thus: Inotropic function and arrhythmias of ischemic isolated rat heart during reperfusion. Particulars: 0.06-6.0 mg/l. From the text: Rat hearts were surgically isolated from white random-bred rats weighing approximately 250 g. The isolated hearts were perfused with a standard oxygenated (95% O2 and 5% CO2) Krebs-Henseleit solution in a retrograde manner (i.e., according to Langendorff and using a constant perfusate pressure of 80 cm of water). The hearts maintained a steady spontaneous contraction rate. A latex balloon catheter connected to a pressure transducer (EMT-746, Siemens-Elema, Sweden) was inserted into the left ventricle of each heart to measure the inotropic function of the heart (as described in Example 3, above). The left ventricle pressure variation curve was recorded using a polygraph.
Stage I ("adaptation regimen") consisted of a 30-minute adaptation of the respective rat hearts to the perfusion regimen. The baseline parameters for the inotropic function of each heart were recorded to establish the preischemic values for the following measured parameters: (i) the systolic pressure in the left ventricle (Psyst. mm Hg); (ii) the diastolic pressure in the left ventricle (Pdiast. mm Hg); (iii) the evolving pressure (Pev. =Psyst. -Pdist. mm Hg); (iv) the maximal rate of increase of left ventricle pressure (+dp/dtmax mm Hg/sec); and (v) the maximal rate of decrease of left ventricle pressure (-dp/dtmax mm Hg/sec). In addition, the heart rate (HR) of each heart was determined from the recordings made of the variations in the left ventricle pressure over time. In Stage II ("ischemic simulation"), ischemia was induced in each heart by shutting off the supply of the perfusion solution to the heart. Approximately 30 minutes later, Stage III ("reperfusion regimen") was initiated by restarting the reperfusion and including in the perfusate solution a test or control substance at one of the following respective concentrations: a perfusate solution of a test substance comprised 0.06, 0.6, or 6.0 mg/l GE, or 0.06, 0.6, or 6.0 mg/l VT, respectively; a perfusate solution of the positive control substance comprised 14 mg/l inosine. Inosine is a nucleoside preparation that produces a favorable inotropic effect on both normal and ischemic myocardium while inducing no rhythm disturbances or acceleration of ischemic contracture development. Woollard et al., Cardiovasc. Res. 15: 659-67 (1981). Inosine was obtained from Sigma Chemical Company, USA (Cat. Code I-4125; lot number 81H0227). The negative control substance comprised reperfusion using a standard oxygenated Krebs-Henseleit solution.
For each heart, the inotropic function of the myocardium was evaluated by measuring the parameters (i) through (v), discussed above, and the heart rate. These six parameters were recorded continuously throughout the study (i.e., beginning with Stage I and continuing through Stage III). The recordings were analyzed at the following times: (a) immediately before beginning Stage II (that is, after the 30-minute Stage I adaptation period, but before stopping perfusion); and (b) at 1, 5, 10, 20, and 30 minutes into the Stage III reperfusion.
The frequency and duration of rhythm disturbances in the 30-minute Stage III reperfusion period were determined by measuring the following parameters: (i) the number of ventricular extrasystoles; (ii) the overall duration of ventricular tachycardias (in seconds); and (iii) the overall duration of ventricular fibrillation (in seconds). Each dose of the test substance was tested on nine isolated hearts.

The next data set has as its system rats. The data set can be described thus: ECG parameters of cardiac function in Nembutal-anesthetized rats.
The subject of data set [1] is Smooth Muscle Cells of Rat Portal Vein. The data set can be described thus: Spontaneous contractile activity of rat portal vein smooth muscle specimens. In kind it is cell-based. To be noted: 5×10^-7 g/ml. As to the method: Rat portal vein SMS samples were surgically isolated from random bred rats weighing 200-250 g. The suitability of each isolated rat portal vein SMS was established by measuring the spontaneous contraction response and its contractile response of the specimen to potassium chloride (KCl) as follows. Each isolated SMS was placed into an organ bath with standard Krebs-Henseleit (KH) solution at 35° C. Then, 0.5 ml of physiological saline were added into the organ bath. In this procedure, one end of the smooth muscle strip was fixed, while the other end of the muscle strip was connected with a probe which transmitted contraction-induced signals to an analog-to-digital converter. The spontaneous contraction curve for each SMS was recorded by taking repeated measurements over a 1-minute period. Next, 0.5 ml of a 600 mM solution of KCl in physiological saline was added to the SMS sample/organ bath to achieve a final concentration of 60 mM KCl. KCl induces contraction of rat portal vein tissue at a fmal tissue concentration of about 60 mM.
The KCl-induced contraction curve for each specimen sample was then recorded over the next 5-minute period. […] During this stabilization period, the spontaneous contraction curve for each SMS was verified by monitoring the data obtained from analog-to-digital converter.
To each SMS in the organ bath prepared according to Steps 2 and 3 above, 0.5 ml of physiological saline was added, and the spontaneous contraction curve was recorded for 1 minute. Each spontaneous contraction curve served as baseline (control) curve for comparison with the respective spontaneous contraction of each SMS in the presence of a test substance or reference substance.
Spontaneous contraction curve values for each SMS were recorded by making repetitive measurements of the spontaneous contractile activity of each sample at 2, 5, 10, and 15 minutes after the addition of the test or reference substance to each SMS/organ bath. Next, 0.5 ml of a solution of 600 mM solution of KCl in […] in the organ bath until a final concentration of 60 mM KCl was achieved. The contractile activity of each SMS was then measured for 5 minutes.

Where “and” joins values, the source holds several entries; their conditions need not be identical. Equal values may be shown once. Residues, ends and D or L forms follow the SMILES beside them.

Method for mice: Each mouse in the study was treated by intraperitoneal injection of a dose of a test or control substance 15 minutes prior to the administration of a deep chloroform anesthesia. A test or control substance was then administered to each mouse. […] Novocainamide, a known antiarrhythmic agent, served as the positive control substance and was administered to mice in the positive control group at a dose of 240 mg/kg. Physiological saline served as the negative control substance and was administered to the mice in the negative control group.
Chloroform anesthesia was administered to each mouse by placing the mouse in an airtight glass container with cotton wool soaked in 20 ml of absolute chloroform. At the moment of respiratory arrest, the mouse was removed from the jar and electrocardiogram (ECG) monitoring (standard lead II) was initiated and continued for 30 seconds. […] An antiarrhythmic activity for a particular dose of a test substance is pharmaceutically acceptable if 30% of the animals in a test group show the latter test results (i.e., namely, no sign of ventricular paroxysmal rhythm disturbances and heart rate below 100 beats per 30 seconds within 30 seconds following the respiratory arrest).
Method for rats: White random-bred male rats weighing about 200 g were anesthetized using Nembutal. A basal ECG was taken as soon as possible following anesthetization to establish basal measurements for the principal parameters of cardiac functions. Rats showing any deviation from normal ECG parameters were excluded from the study.
Each dose of each test substance was evaluated on a separate experimental group consisting of 10 rats. ECG traces (no less than 4 complexes each) were taken at 1, 3, 5, and 10 minutes after the injection of the test substance. Physiological saline served as the negative control substance. To each animal in the negative control group, 2 ml of physiological saline was injected intravenously.
Cardiac function was evaluated by monitoring the following ECG parameters:
(iv) the duration of the QT interval (which defines the time from the beginning of the QRS complex to the end of the T wave and reflects the duration of ventricular depolarization and repolarization). The normal value for this parameter for Nembutal-anesthetized rats is 50 to 106 ms using lead II ECG.

With `CN1[C@@H]2CC[C@H]1C[C@@H](OC(=O)C(CO)c1ccccc1)C2` (stereo partly shown) [Atropine, atropine], the “Contraction Amplitude, calcium-induced (% of control level)” value with Intestinal Smooth Muscle (Application I, 10^-7 g/ml) worked out at 39.57%; with Intestinal Smooth Muscle (Application II, 10^-6 g/ml), 25.08%.

On to `COc1ccc([C@@H]2Sc3ccccc3N(CCN(C)C)C(=O)[C@@H]2OC(C)=O)cc1` [Diltiazem, diltiazem], for which the “Contraction Amplitude, calcium-induced (% of control level)” value with Intestinal Smooth Muscle (Application I, 10^-9 g/ml) stood at 39.02%; in the data set with Intestinal Smooth Muscle (Application II, 10^-8 g/ml) it was 12.95%.

Consider `CCN(CC)CCNC(=O)c1ccc(N)cc1` [Novocainamide, reference compound], for which, in the data set with mice, the “Antiarrhythmic Effect (no. animals) %” value turned out to be 77.8%, the “Antiarrhythmic Effect (no. animals) abs” value was found to be 7 and the Result entry was “Antiarrhythmic effect”.

As for `CC(C)[C@H](N)C(=O)N[C@H](C(=O)O)[C@@H](C)O` [VT, L-Valine-L-Threonine] (H-Val-Thr-OH), in the data set on ischemic myocardium, the “arrhythmogenic effect during reperfusion” value is on record as “Neither GE nor VT was found to have an arrhythmogenic effect”. Further, the “Duration of QT Interval (% of Initial Mean Value)” value with rats (0.001 mg/kg i.v., 1 min) turned out to be 101.80%; in the data set with rats (0.001 mg/kg i.v., 3 min), 105.73%; in the data set on rats (0.001 mg/kg i.v., 5 min) it was 102.20%; in the data set on rats (0.001 mg/kg i.v., 10 min), 101.24%; in the data set on rats (0.01 mg/kg i.v., 1 min), 99.86%; in the data set with rats (0.01 mg/kg i.v., 3 min) it was 101.48%. For the same molecule, the “Duration of QT Interval (% of Initial Mean Value)” value in the data set on rats (0.01 mg/kg i.v., 5 min) is 101.09%; with rats (0.01 mg/kg i.v., 10 min), 97.32%; with rats (0.1 mg/kg i.v., 1 min), 102.97%; in the data set on rats (0.1 mg/kg i.v., 3 min), 98.39%; in the data set with rats (0.1 mg/kg i.v., 5 min), 95.65%; in the data set on rats (0.1 mg/kg i.v., 10 min), 90.67%. The “Duration of QT Interval (% of Initial Mean Value)” value in the data set with rats (1.0 mg/kg i.v., 1 min) is 105.57%; with rats (1.0 mg/kg i.v., 3 min) it was 105.58%; in the data set with rats (1.0 mg/kg i.v., 5 min), 102.18%; in the data set on rats (1.0 mg/kg i.v., 10 min), 101.18%; in the data set on rats (10.0 mg/kg i.v., 1 min) it was 94.89% and 102.97%; with rats (10.0 mg/kg i.v., 3 min), 95.91% and 105.82%. In addition, the “Duration of QT Interval (% of Initial Mean Value)” value in the data set with rats (10.0 mg/kg i.v., 5 min) is 96.52% and 103.51%; with rats (10.0 mg/kg i.v., 10 min) it was 88.88% and 104.78%; in the data set with rats (100.0 mg/kg i.v., 1 min), 100.00% and 96.62%; with rats (100.0 mg/kg i.v., 3 min), 100.82% and 100.45%; in the data set with rats (100.0 mg/kg i.v., 5 min) it was 97.96% and 99.74%; in the data set with rats (100.0 mg/kg i.v., 10 min), 94.74% and 102.25%.

On to `COc1ccc(CCN(C)CCCC(C#N)(c2ccc(OC)c(OC)c2)C(C)C)cc1OC` (stereo not shown) [Verapamil, reference compound], for which the “Amplitude of spontaneous contraction (% of Control)” value in data set [1] (2 min after application) is given as 95.82%; in data set [1] (5 min after application), 78.58%; in data set [1] (10 min after application), 60.79%; in data set [1] (15 min after application), 37.92%. The “Area Under Curve of spontaneous contraction (% of Control)” value in data set [1] (2 min after application) is recorded as 82.41%; in data set [1] (5 min after application), 62.11%; in data set [1] (10 min after application), 49.83%; in data set [1] (15 min after application) it was 35.13%.
